# According to ChEMBL document CHEMBL4808208, “Hepatoselective Dihydroquinolizinone Bis-acids for HBsAg mRNA Degradation” (ACS Med Chem Lett, 2021):
# Calls of active or inactive are those of the source. No cut-off for these calls is given here.
# Experiments:
# [1] = tested on: Hepatitis B virus; assay: Antiviral activity against Hepatitis B virus infected in human HepG2.2.15 cells assessed as reduction in HBsAg level measured after 4 days by AlphaLisa assay; format: functional, organism-based; conditions: HepG2.2.15, 96 h
# [2] = Cytotoxicity against human HepG2.2.15 cells assessed as reduction in cell viability measured after 4 days by CellTiter-Glo reagent based assay; design: species or system HepG2 2.2.15; conditions: time 4 day
# [3] = 1-Octanol/saturated PBS buffer distribution coefficient, logD of the compound incubated for 1 hr by LC-MS/MS analysis; format: physicochemical
# [4] = Apparent permeability across apical to basolateral side in MDCK-MDR1 cells at 1 uM measured after 120 mins by LC-MS/MS analysis; format: ADME, cell-based, Canis lupus familiaris; conditions: dog
# [5] = Apparent permeability across basolateral to apical side in MDCK-MDR1 cells at 1 uM measured after 120 mins by LC-MS/MS analysis; format: ADME, cell-based, Canis lupus familiaris; conditions: dog
# [6] = tested on: OATP1B3; assay: Ratio of drug uptake in HEK293 cells transfected with OATP1B3 (unknown origin) in absence of transporter inhibitor, estradiol-17beta-glucuronide to drug uptake in HEK293 cells in absence of transporter inhibitor, estradiol-17beta-glucuronide by LC-MS/MS analysis; format: ADME, cell-based; conditions: human, HEK293 cells transfected with OATP1B3 versus HEK293 cells
# [7] = target: T1, Solute carrier organic anion transporter family member 1B3 (Homo sapiens, UniProt Q9NPD5); assay: Substrate activity at OATP1B3 (unknown origin) expressed in HEK293 cells assessed as ratio of drug uptake in absence of transporter inhibitor, estradiol-17beta-glucuronide to drug uptake in presence of transporter inhibitor, estradiol-17beta-glucuronide by LC-MS/MS analysis; format: ADME, cell-based
# T1 sequence (Q9NPD5 whole entry): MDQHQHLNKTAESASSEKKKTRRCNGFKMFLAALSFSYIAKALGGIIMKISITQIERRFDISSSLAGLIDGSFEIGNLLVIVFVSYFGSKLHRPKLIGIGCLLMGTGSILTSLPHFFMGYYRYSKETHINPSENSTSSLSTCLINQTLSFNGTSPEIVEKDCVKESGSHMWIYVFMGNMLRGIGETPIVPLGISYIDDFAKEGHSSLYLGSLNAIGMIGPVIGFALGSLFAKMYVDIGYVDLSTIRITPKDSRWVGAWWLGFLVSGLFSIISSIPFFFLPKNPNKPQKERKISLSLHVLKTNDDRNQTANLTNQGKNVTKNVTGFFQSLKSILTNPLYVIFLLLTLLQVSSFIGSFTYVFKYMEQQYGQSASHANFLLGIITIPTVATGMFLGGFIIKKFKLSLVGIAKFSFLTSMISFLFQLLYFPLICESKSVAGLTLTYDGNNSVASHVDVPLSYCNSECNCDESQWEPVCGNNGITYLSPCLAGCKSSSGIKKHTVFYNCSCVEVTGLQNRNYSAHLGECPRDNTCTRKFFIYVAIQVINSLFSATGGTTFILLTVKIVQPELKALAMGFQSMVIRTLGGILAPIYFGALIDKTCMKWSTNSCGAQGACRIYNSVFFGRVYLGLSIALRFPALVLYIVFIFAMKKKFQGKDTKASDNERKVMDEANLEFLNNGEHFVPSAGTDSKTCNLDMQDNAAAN
# [8] = target: Terminal nucleotidyltransferase 4B (Homo sapiens) (UniProt Q8NDF8); assay: Inhibition of Myc-DDK-tagged human PAPD5 expressed in HEK293 cells assessed as inhibition of poly-adenylation reaction using P32-labeled RNA oligonucleotides (5'-GCCUUUCAUCUCUAACUGCGAAAAAAAAAA-3') as substrate measured for 20 mins by phosphor imaging analysis; conditions: dose 0.37-10 µM
# Sequence of Terminal nucleotidyltransferase 4B (Homo sapiens) (Q8NDF8 whole entry): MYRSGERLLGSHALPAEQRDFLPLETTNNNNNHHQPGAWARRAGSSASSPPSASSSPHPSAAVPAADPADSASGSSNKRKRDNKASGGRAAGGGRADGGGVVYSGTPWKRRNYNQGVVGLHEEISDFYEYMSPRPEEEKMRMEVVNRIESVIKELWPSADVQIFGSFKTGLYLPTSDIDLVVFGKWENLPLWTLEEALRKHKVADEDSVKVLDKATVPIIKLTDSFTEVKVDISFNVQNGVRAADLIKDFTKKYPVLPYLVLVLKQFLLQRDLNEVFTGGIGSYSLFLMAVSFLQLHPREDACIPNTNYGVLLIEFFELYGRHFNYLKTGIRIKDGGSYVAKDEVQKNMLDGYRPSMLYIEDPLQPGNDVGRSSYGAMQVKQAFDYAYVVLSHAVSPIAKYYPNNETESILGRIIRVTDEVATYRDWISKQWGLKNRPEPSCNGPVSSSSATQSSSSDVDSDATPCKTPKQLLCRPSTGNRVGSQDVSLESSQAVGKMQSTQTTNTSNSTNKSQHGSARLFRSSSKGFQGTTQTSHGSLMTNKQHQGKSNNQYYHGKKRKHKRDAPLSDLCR
# [9] = target: T2, Solute carrier organic anion transporter family member 1B1 (Homo sapiens, UniProt Q9Y6L6); assay: Substrate activity at OATP1B1 (unknown origin) expressed in HEK293 cells assessed as ratio of drug uptake in absence of transporter inhibitor,estradiol-17beta-glucuronide to drug uptake in presence of transporter inhibitor, estradiol-17beta-glucuronide by LC-MS/MS analysis; format: ADME, cell-based
# T2 sequence (Q9Y6L6 whole entry): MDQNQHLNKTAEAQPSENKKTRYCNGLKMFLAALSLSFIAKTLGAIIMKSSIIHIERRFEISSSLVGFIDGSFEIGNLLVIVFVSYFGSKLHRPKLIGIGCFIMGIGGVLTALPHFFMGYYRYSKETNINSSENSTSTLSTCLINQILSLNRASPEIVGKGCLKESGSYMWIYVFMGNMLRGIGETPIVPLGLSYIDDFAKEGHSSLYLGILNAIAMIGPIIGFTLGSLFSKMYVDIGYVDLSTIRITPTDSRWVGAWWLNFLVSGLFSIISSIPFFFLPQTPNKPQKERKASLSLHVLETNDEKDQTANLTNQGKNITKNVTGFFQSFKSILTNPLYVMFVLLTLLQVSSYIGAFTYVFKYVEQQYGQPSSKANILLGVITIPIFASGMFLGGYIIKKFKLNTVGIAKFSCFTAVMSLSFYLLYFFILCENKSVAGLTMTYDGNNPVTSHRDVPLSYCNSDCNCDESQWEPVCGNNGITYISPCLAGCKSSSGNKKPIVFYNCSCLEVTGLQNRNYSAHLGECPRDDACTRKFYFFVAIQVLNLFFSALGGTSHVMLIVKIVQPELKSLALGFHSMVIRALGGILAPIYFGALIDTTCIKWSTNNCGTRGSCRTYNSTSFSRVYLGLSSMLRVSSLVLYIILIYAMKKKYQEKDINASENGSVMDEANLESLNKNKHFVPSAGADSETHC
# [10] = target: Terminal nucleotidyltransferase 4A (Homo sapiens) (UniProt Q5XG87); assay: Inhibition of human PAPD7 expressed in HEK293 cells assessed as inhibition of poly-adenylation reaction using P32-labeled RNA oligonucleotides (5'-GCCUUUCAUCUCUAACUGCGAAAAAAAAAA-3') as substrate measured for 3 hrs by phosphor imaging analysis; format: cell-based; conditions: dose 0.37-10 µM
# Sequence of Terminal nucleotidyltransferase 4A (Homo sapiens) (Q5XG87 whole entry): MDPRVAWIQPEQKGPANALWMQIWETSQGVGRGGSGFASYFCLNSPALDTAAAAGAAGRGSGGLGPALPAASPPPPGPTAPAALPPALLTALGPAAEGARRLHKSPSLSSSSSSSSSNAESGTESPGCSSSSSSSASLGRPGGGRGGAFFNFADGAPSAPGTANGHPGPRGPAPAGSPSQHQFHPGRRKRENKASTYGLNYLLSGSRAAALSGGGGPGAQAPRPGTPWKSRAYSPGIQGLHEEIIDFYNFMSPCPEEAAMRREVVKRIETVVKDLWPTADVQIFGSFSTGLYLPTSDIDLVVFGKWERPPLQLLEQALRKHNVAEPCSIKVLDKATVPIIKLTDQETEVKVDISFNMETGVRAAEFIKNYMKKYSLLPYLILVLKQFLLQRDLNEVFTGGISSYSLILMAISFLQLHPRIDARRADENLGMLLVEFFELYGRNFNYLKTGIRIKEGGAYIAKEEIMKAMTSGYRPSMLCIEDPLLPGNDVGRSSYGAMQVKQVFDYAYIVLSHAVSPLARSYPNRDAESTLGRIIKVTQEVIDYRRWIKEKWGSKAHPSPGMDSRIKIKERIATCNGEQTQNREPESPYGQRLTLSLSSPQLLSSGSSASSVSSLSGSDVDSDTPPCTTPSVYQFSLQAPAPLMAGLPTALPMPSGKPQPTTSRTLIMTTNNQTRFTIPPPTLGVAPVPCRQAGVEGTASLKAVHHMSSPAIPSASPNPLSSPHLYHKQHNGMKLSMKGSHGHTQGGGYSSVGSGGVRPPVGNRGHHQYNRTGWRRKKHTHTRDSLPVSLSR
# [11] = tested on: Hepatitis B virus; assay: Antiviral activity against Hepatitis B virus infected in human HepG2.2.15 cells assessed as reduction in HBV subgenomic 2.4/2.1 kb mRNA level at 1 uM measured after 5 days by Northern blot analysis; format: functional, organism-based; conditions: time 5.0 day
# [12] = Efflux ratio of apparent permeability in MDCK-MDR1 cells at 1 uM after 120 mins by LC-MS/MS analysis; format: ADME, cell-based, Canis lupus familiaris; conditions: dog
# [13] = tested on: OATP1B1; assay: Ratio of drug uptake in HEK293 cells transfected with OATP1B1 (unknown origin) in absence of transporter inhibitor, estradiol-17beta-glucuronide to drug uptake in HEK293 cells in absence of transporter inhibitor, estradiol-17beta-glucuronide by LC-MS/MS analysis; format: ADME, cell-based; conditions: human, HEK293 cells transfected with OATP1B1 versus HEK293 cells
# [14] = tested on: Hepatitis B virus; assay: Antiviral activity against Hepatitis B virus infected in human HepG2.2.15 cells assessed as reduction in HBV pregenomic mRNA level at 1 uM measured after 5 days by Northern blot analysis; format: functional, organism-based; conditions: time 5.0 day
SMILES,EC50 [1] [nM],logD at 1 h [3],CC50 at 96 h [2] [nM],further results
COc1cc2c(cc1OCCCCC(=O)O)C[C@@H](C(C)C)n1cc(C(=O)O)c(=O)cc1-2,380,–,> 10000,–
COc1cc2c(cc1OCCCCCCCCC(=O)O)C[C@@H](C(C)C)n1cc(C(=O)O)c(=O)cc1-2,4.6,0.7,> 10000,–
COCCCOc1cc2c(cc1OC)-c1cc(=O)c(C(=O)O)cn1[C@H](C(C)C)C2,1.8,1.39,> 10000,"Papp A→B at 2 h, 1 µM [4]: 9.17 ×10⁻⁶ cm/s; Papp B→A at 2 h, 1 µM [5]: 35.8 ×10⁻⁶ cm/s; uptake ratio [6]: 0.56; Ratio [7]: 0.42; inhibition [8]: Dose-Dependent Effect; Ratio [9]: 0.38; inhibition [10]: Dose-Dependent Effect; Activity [11]: Active; efflux ratio at 2 h, 1 µM [12]: 3.9; uptake ratio [13]: 0.71; Activity [14]: Active"
COc1cc2c(cc1OCCCCCC(=O)O)C[C@@H](C(C)C)n1cc(C(=O)O)c(=O)cc1-2,87,–,> 10000,–

# Now from value to compound, other results behind:
EC50 [1] [nM],logD at 1 h [3],SMILES,CC50 at 96 h [2] [nM],further results
7.6,0.07,COc1cc2c(cc1OCCCCCCCC(=O)O)C[C@@H](C(C)C)n1cc(C(=O)O)c(=O)cc1-2,> 10000,–
1010,–,COc1cc2c(cc1OCCCC(=O)O)C[C@@H](C(C)C)n1cc(C(=O)O)c(=O)cc1-2,> 10000,–
> 10000,–,COc1cc2c(cc1OCC(=O)O)C[C@@H](C(C)C)n1cc(C(=O)O)c(=O)cc1-2,> 10000,–
2780,–,COc1cc2c(cc1OCCCOCC(=O)O)C[C@@H](C(C)C)n1cc(C(=O)O)c(=O)cc1-2,> 10000,–
